# Tests used:
# [1] = target: T1, Ornithine acetyltransferase (MtArgJ) (Mycobacterium tuberculosis, UniProt P9WPZ3); assay: thermal shift assay (apparent Kd); also ANS displacement ([…]) and enzyme inhibition by TLC assay (Dixon Ki […]); type: binding
# T1 construct: gene argJ
# [2] = test system: CC(=O)N[C@@H](CCCN)C(=O)O; assay: purified protein; settings: active (substrate-binding) site
# [3] = target: T1, Ornithine acetyltransferase (MtArgJ); assay: […]; marginal decrease of enzyme activity (TLC assay); type: binding
# T1 sequence (P9WPZ3 1-199): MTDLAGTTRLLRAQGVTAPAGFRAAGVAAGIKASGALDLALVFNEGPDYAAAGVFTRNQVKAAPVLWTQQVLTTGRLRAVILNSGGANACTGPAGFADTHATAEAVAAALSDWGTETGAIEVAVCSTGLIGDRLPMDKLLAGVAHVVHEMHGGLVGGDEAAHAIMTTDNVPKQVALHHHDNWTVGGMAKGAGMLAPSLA
# T1 sequence (P9WPZ3 200-404): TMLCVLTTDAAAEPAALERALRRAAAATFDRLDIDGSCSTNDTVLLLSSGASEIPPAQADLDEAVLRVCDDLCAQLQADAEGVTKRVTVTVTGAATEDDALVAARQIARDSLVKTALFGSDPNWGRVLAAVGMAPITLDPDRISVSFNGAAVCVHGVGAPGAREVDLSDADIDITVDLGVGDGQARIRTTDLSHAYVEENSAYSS
compound,measurement,setting,value
"O=C(Nc1cccc2c(=O)cc(-c3nnn[nH]3)oc12)c1ccc(OCCCCc2ccccc2)cc1 [PRK, Pranlukast]",Kd,[1],126 µM
Ornithine acetyltransferase (MtArgJ) (Mycobacterium tuberculosis H37Rv),Km,[2],91.8 µM
"O=S(=O)(O)c1cccc2cccc(Nc3ccccc3)c12 [ANS, 8‐anilinonaphthalene‐1‐sulfonic acid]",Kd,[3],937 µM

# — article PMC5887547, “An allosteric inhibitor of Mycobacterium tuberculosis ArgJ: Implications to a novel combinatorial therapy” (EMBO Molecular Medicine, 2018)
